Measurements reported in patent publication US20250353891A1 (MEDIMMUNE LIMITED, priority 2022, published 2025).
pEC50: −log10 of the molar value. Values joined by “and” are separate entries in the source; they are usually repeats but may differ in a detail not shown here. Equal values may be shown once. One block for each compound: values may come before it. Starred links: 1 amine or outer side, 2 acyl side, 3 side chain; linkers in the order of their positions; H or OH if unused. Non-standard residues stand in square brackets, D forms with d. Residues, ends and D or L forms follow the SMILES beside them. Groups on a side chain read outwards from the residue. *: point of attachment. C18 diacid = O=C(O)CCCCCCCCCCCCCCCCC(=O)*; γGlu = O=C(O)[C@H](CCC(=O)[*:2])N[*:1]; αMeF = C[C@](N)(Cc1ccccc1)C(=O)O; AEEA = NCCOCCOCC(=O)O; Aib = CC(C)(N)C(=O)O

How the values were obtained:
[1] = biological target: human GLP-1 receptor (hGLP-1R) (Homo sapiens, UniProt P43220); test: cAMP production (HTRF) in CHO cells expressing hGLP-1R; format: cell-based; parameters: expressed in transfected cells
Chain of human GLP-1 receptor (hGLP-1R) (P43220 24-463): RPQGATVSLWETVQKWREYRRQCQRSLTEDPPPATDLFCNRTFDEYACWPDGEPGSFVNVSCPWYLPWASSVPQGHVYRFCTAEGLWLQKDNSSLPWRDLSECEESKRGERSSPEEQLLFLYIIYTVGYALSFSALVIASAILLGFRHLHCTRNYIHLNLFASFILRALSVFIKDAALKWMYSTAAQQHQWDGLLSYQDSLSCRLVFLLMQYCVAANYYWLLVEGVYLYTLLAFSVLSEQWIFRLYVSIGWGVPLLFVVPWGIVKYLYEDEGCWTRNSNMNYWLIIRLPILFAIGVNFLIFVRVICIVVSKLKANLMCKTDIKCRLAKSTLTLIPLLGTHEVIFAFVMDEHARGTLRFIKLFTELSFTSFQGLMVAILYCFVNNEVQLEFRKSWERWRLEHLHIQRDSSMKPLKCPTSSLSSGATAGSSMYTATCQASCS
Method in brief: (§1)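 Potency values represent EC50 from 4-parameter logistic curves of HTRF % Delta F signal. Receptor-expressing CHO cells (hGCGR 2×10^5 cells/mL, hGLP-1R 1×10^5 cells/mL) were exposed for 30 min at room temperature before two-step cAMP detection.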

wildtype (WT) mice = test: Glucose change in wildtype mice; format: in vivo, mouse; conditions: s.c., 120 min vs 0 min, somatostatin pretreatment (octreotide) 30 min prior to cpd
Method in brief: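 Wildtype mice aged 8-14 weeks, fasted 2 h, sometimes pre-treated with octreotide 10 mg/kg 30 min before peptide injection. Blood glucose by glucometer at -30, 0, 30, 60, 120, 180, 240 and 360 min; n=4-8/group, mice reused up to 3 times with ≥1 week wash-out.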

in vivo [2] = conditions: male, cynomolgus monkey, 10 nmol/kg
Excerpt: (§2) Selected test peptides (n=8) were profiled for pharmacokinetic (PK) properties in the mouse after single intravenous (i.v.) or subcutaneous (s.c.) dose. A subset (n=4) meeting the acceptance criteria was subsequently profiled in the dog (single i.v. dose) and non-human primate (single i.v. and s.c. dose). […] Low-binding plasticware containers were used during preparation and sample handling to avoid non-specific binding.
Non-human primate: PK was studied in non-naïve male cynomolgus monkeys. After dosing, PK samples were collected from the femoral vein. Blood of each sample was transferred into plastic micro centrifuge tubes containing EDTA-K2, inverted several times for proper mixing of contents and then placed on wet ice. The blood samples were centrifuged under refrigerated (2° C. to 8° C.) conditions within 30 minutes following sample collection to obtain plasma and stored at −60° C. to −90° C.° C. prior to analysis.
(§3) Samples analysis: Samples were analyzed by LC-MS/MS. Calibration standards were injected at the beginning and end of each batch and the determined concentration for each prepared standard was used to construct a calibration curve. Plasma and dose aliquot sample concentrations were determined from the plasma calibration curve.
(§4) Data analysis: Plasma concentration data was analyzed by non-compartmental analysis (NCA) using Phoenix Winnonlin v. 8.3.3.33. Linear trapezoidal rule was used for increasing values and log trapezoidal rule was used for decreasing values, applying uniform weighting for lambda_z calculations. Subcutaneous bioavailability was calculated as the ratio AUC(s.c.)0-inf/AUC(i.v.)0-inf. Reported values (Table 18) represent the mean of the individual estimates.

[3] = Mouse acute food intake study; format: in vivo; conditions: male C57Bl/6 mice, s.c., cumulative food intake at 24 hr vs vehicle
Method in brief: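 Single-housed male C57Bl/6 mice (8-9 weeks on arrival), chow-fed, acclimated and sham-dosed ≥2 times, were fasted 6-8 h, then given vehicle or peptide subcutaneously at 5 mL/kg 1-2 h before lights out. Food intake was recorded automatically over 48 h and analysed as cumulative intake.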

[4] = biological target: human glucagon receptor (hGCGR) (Homo sapiens, UniProt P47871); test: cAMP production (HTRF) in CHO cells expressing hGCGR; format: cell-based; parameters: expressed in transfected cells; conditions: Table 7, peptides modified at position 20; cAMP in CHO hGCGR cells; geometric mean; read-out: hGluc-R EC50
Chain of human glucagon receptor (hGCGR) (P47871 26-477): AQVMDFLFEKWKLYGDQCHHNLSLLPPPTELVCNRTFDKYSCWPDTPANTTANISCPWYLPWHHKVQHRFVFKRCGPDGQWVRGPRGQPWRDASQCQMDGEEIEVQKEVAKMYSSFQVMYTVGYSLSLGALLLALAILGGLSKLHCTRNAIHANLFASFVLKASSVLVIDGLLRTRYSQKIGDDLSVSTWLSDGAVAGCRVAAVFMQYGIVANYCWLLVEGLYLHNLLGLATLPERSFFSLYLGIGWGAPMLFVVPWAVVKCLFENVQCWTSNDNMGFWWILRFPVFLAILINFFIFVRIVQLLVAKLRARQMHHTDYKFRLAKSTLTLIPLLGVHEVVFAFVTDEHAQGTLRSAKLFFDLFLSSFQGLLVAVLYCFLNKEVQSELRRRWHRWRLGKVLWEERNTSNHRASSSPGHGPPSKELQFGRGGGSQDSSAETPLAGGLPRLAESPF
Method in brief: as §1

[5] = test system: GLP-1R knockout (KO) mice; test: Glucose change in GLP-1R knockout mice; format: in vivo, mouse; conditions: GLP-1R KO mice, s.c., 120 min vs 0 min, somatostatin pretreatment (octreotide) 30 min prior to cpd
Method in brief: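 GLP-1R knockout mice (n=4-8/group, sorted by body weight) were fasted 2 h, and in some studies pretreated with octreotide 10 mg/kg 30 min before peptide injection. Mice were reused up to 3 times with at least 1-week wash-out.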

in vivo [6] = conditions: male, Beagle, dog, iv, 10 nmol/kg
Excerpt: as §2
Blood of each sample was transferred into plastic micro centrifuge tubes containing EDTA-K2, inverted several times for proper mixing of contents and then placed on wet ice.
as §3, §4

in vivo [7] = conditions: male, C57BL/6, mouse, 10 nmol/kg
Pancreatin = test: Proteolytic resistance to FasSSIF/Pancreatin; format: in vitro ADME; conditions: FasSSIF/Pancreatin, 37° C., 0 min
Method in brief: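 Peptide (1.0 mg) in pre-warmed FasSSIF, proteolysis started with fresh FasSSIF/USP Pancreatin and held at 37 °C. Aliquots at 0, 5, 10, 15, 30 min quenched in 10% TFA; remaining intact peptide estimated by RP-HPLC peak area, UV 210 nm.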

[8] = Proteolytic resistance to FasSSGF containing porcine pancreatic pepsin; format: in vitro ADME; conditions: pig, simulated gastric fluid, FasSSGF with pepsin, 37° C., read-out: % intact peptide over time (min)
Method in brief: (§5)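 Peptide (250 μM stock in FasSSGF) mixed 1:1 with porcine pepsin stock (0.5 mg/mL in FasSSGF) and held at 37° C; samples at 0, 5, 10, 15 and 30 min quenched in ammonium bicarbonate, pH 8. Intact peptide remaining estimated by RP-HPLC peak area, UV 210 nm.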

[9] = biological target: T1, porcine pancreatic pepsin (Sus scrofa, UniProt P00791); test: as above; format: in vitro ADME; conditions: FasSSGF with pepsin, 37° C., 0 min
T1 construct: purchased Sigma P7012
T1 sequence (P00791 60-385): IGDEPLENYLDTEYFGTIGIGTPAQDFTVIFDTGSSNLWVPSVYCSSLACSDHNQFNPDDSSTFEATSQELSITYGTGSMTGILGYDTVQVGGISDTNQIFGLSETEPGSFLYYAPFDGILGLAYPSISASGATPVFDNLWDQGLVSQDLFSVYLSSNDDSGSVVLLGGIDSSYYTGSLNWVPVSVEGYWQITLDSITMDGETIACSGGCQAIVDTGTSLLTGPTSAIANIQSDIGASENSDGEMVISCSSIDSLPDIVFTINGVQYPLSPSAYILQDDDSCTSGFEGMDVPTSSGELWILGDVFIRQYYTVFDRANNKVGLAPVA
Method in brief: as §5

pEC50 ([1]; Table 7, peptides modified at position 20, cAMP in CHO hGLP-1R cells, geometric mean, read-out: hGLP-1R EC50): 10.49
% Relative Potency Ratio ([1]; Table 7, % GLP-1R activity relative to GLP-1 / % GlucR activity relative to glucagon): 1.8
bioavailability (in vivo [2]): 95%
half-life (in vivo [2]; iv): 100 h
pEC50 [4]: 10.54
half-life (in vivo [6]): 75 h
bioavailability (in vivo [7]): 109%
half-life (in vivo [7]; iv): 9.5 h
SMILES: CC[C@H](C)[C@H](NC(=O)C(C)(C)NC(=O)[C@H](CCC(N)=O)NC(=O)[C@@H](NC(=O)[C@](C)(Cc1ccccc1)NC(=O)[C@H](CC(=O)O)NC(=O)[C@H](CCCCNC(=O)COCCOCCNC(=O)COCCOCCNC(=O)CC[C@H](NC(=O)CCCCCCCCCCCCCCCCC(=O)O)C(=O)O)NC(=O)[C@H](C)NC(=O)[C@H](C)NC(=O)[C@H](CCCNC(=N)N)NC(=O)[C@H](CO)NC(=O)[C@H](CC(=O)O)NC(=O)[C@H](CC(C)C)NC(=O)[C@](C)(Cc1ccccc1)NC(=O)[C@H](CCCCN)NC(=O)[C@H](CO)NC(=O)[C@@H](NC(=O)[C@H](CC(=O)O)NC(=O)[C@H](CO)NC(=O)[C@@H](NC(=O)[C@](C)(Cc1ccccc1)NC(=O)[C@H](CO)NC(=O)CNC(=O)[C@H](Cc1c[nH]cn1)NC(=O)C(C)(C)NC(=O)[C@@H](N)Cc1c[nH]cn1)[C@@H](C)O)C(C)C)C(C)C)C(=O)N[C@@H](C)C(=O)N[C@@H](CC(N)=O)C(=O)N[C@H](C(N)=O)[C@@H](C)O [Peptide 224, H-Aib-H-G-S-αMePhe-T-S-D-V—S-K-αMePhe-L-D-S-R-A-A-K (E-(O2Oc)-(O2Oc)-γE-C18diacid) 20-D-αMePhe-V-Q-Aib-I-A-N-T-amide] (H-H[Aib]HGS[αMeF]TSDVSK[αMeF]LDSRAAK([AEEA-AEEA-γGlu-C18 diacid])D[αMeF]VQ[Aib]IANT-NH2; N-terminus assumed)
WT % glucose change 120 min (wildtype (WT) mice; 3 nmol/kg): −46.3%
WT % glucose change 120 min (wildtype (WT) mice; 10 nmol/kg): −40.0%
24 hr % Vehicle Food Intake ([3]; dose 1 nmol/kg): 91.3%
24 hr % Vehicle Food Intake ([3]; dose 3 nmol/kg): 76.6%
24 hr % Vehicle Food Intake ([3]; dose 10 nmol/kg): 66.5% and 72.5%
GLP-1R KO % glucose change 120 min ([5]; 3 nmol/kg): 100.3%
GLP-1R KO % glucose change 120 min ([5]; 10 nmol/kg): 132.3%

SMILES: CC[C@H](C)[C@H](NC(=O)[C@H](Cc1ccccc1)NC(=O)[C@H](CCC(=O)O)NC(=O)[C@H](CCCCNC(=O)COCCOCCNC(=O)COCCOCCNC(=O)CC[C@H](NC(=O)CCCCCCCCCCCCCCCCC(=O)O)C(=O)O)NC(=O)[C@H](C)NC(=O)[C@H](C)NC(=O)[C@H](CCC(N)=O)NC(=O)CNC(=O)[C@H](CCC(=O)O)NC(=O)[C@H](CC(C)C)NC(=O)[C@H](Cc1ccc(O)cc1)NC(=O)[C@H](CO)NC(=O)[C@H](CO)NC(=O)[C@@H](NC(=O)[C@H](CC(=O)O)NC(=O)[C@H](CO)NC(=O)[C@@H](NC(=O)[C@H](Cc1ccccc1)NC(=O)[C@@H](NC(=O)CNC(=O)[C@H](CCC(=O)O)NC(=O)C(C)(C)NC(=O)[C@@H](N)Cc1cnc[nH]1)[C@@H](C)O)[C@@H](C)O)C(C)C)C(=O)N[C@@H](C)C(=O)N[C@@H](Cc1c[nH]c2ccccc12)C(=O)N[C@@H](CC(C)C)C(=O)N[C@H](C(=O)N[C@@H](CCCNC(=N)N)C(=O)NCC(=O)N[C@@H](CCCNC(=N)N)C(=O)NCC(=O)O)C(C)C [semaglutide, reference compound]
% intact peptide over time (min) (Pancreatin): 100%
remaining at 5 min, 125 µM ([8]; 5 min): 15%
remaining at 10 min, 125 µM ([8]; 10 min): 13%
remaining at 0.25 h, 125 µM ([8]; 15 min): 12%
remaining at 0.5 h, 125 µM ([8]; 30 min): 14%
% intact peptide over time (min) [9]: 100%
